pIC50: −log10 of the molar value.

This assay addresses T1, human TRPC6 (Homo sapiens, UniProt Q9Y210).
T1 construct: expressed in transfected cells
T1 sequence (Q9Y210 1-931): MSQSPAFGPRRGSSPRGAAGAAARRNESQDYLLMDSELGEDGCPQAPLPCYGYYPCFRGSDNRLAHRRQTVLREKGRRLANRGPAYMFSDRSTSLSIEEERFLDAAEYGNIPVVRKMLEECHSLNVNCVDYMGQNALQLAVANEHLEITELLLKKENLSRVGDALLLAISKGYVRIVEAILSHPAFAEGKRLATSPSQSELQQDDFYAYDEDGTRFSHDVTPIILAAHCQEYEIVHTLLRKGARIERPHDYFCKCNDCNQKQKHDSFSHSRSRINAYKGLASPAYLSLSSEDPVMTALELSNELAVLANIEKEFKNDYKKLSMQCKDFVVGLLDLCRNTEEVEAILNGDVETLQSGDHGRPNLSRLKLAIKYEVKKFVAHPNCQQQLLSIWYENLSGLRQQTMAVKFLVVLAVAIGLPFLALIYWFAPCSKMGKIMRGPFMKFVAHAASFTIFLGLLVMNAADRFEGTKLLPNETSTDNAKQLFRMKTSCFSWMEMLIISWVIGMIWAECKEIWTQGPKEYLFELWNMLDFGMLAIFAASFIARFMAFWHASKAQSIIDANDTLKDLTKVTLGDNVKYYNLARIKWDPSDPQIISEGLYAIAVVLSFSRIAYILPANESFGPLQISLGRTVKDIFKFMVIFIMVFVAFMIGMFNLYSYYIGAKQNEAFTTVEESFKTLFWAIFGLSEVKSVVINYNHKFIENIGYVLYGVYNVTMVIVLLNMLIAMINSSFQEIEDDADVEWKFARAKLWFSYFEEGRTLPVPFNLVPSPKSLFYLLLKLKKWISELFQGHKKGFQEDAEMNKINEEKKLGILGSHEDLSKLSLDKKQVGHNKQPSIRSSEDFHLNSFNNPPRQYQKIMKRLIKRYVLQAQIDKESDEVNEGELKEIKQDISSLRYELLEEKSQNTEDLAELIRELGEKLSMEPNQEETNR
Nature of the assay: TRPC6 calcium flux assay (FLIPR, OAG-stimulated calcium influx). The format is cell-based. The settings on record: HEK293 cells stably transfected with human TRPC6, read-out: hTRPC6 Potency. Summed up:
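IC50 derived by plotting background-corrected peak fluorescence (180 s window, normalized to OAG-triggered signal vs buffer) against dose. Stable human TRPC6 HEK293 line was dye-loaded, exposed to compound 25 min, then challenged with 50 uM final OAG in 2 mM Ca2+ HEPES buffer pH 7.2, 0.5% DMSO.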
In general terms: Calcium assays in cells follow changes in intracellular calcium, usually with a dye or a luminescent sensor.
Turning to `Cc1nc(Cn2c(N3CC[C@@H](F)[C@H](N)C3)nc3cc(F)c(F)cc32)no1` [Example 572, (3R,4R)-1-(5,6-difluoro-1-((5-methyl-1,2,4-oxadiazol-3-yl)methyl)-1H-benzo[d]imidazol-2-yl)-4-fluoropiperidin-3-amine], the pIC50 was 6.97. With `N[C@@H]1CN(c2nc3ccc(F)cc3n2Cc2nnc(C(F)F)s2)CC[C@H]1F` [Example 573, (3R,4R)-1-(1-((5-(difluoromethyl)-1,3,4-thiadiazol-2-yl)methyl)-6-fluoro-1H-benzo[d]imidazol-2-yl)-4-fluoropiperidin-3-amine] the figure was 6.93; with `Cc1nnc(Cn2c(N3CC[C@@H](F)[C@H](N)C3)nc3ncc(F)cc32)s1` [Example 574, (3R,4R)-4-fluoro-1-(6-fluoro-1-((5-methyl-1,3,4-thiadiazol-2-yl)methyl)-1H-imidazo[4,5-b]pyridin-2-yl)piperidin-3-amine], 6.82. For the compound `Cc1nc(Cn2c(N3CC[C@@H](F)[C@H](N)C3)nc3cc(F)c(F)cc32)oc1C` [Example 575, (3R,4R)-1-(1-((4,5-dimethyloxazol-2-yl)methyl)-5,6-difluoro-1H-benzo[d]imidazol-2-yl)-4-fluoropiperidin-3-amine], the pIC50 was 6.81. Take `CN(C)C(=O)Cn1c(N2CC[C@@H](F)[C@H](N)C2)nc2cc(F)ccc21` [Example 576, 2-(2-((3R,4R)-3-amino-4-fluoropiperidin-1-yl)-5-fluoro-1H-benzo[d]imidazol-1-yl)-N,N-dimethylacetamide]: the pIC50 was 6.77. With `CCc1nc(Cn2c(N3CC[C@@H](F)[C@H](N)C3)nc3cc(F)c(F)cc32)no1` [Example 577, (3R,4R)-1-(1-((5-ethyl-1,2,4-oxadiazol-3-yl)methyl)-5,6-difluoro-1H-benzo[d]imidazol-2-yl)-4-fluoropiperidin-3-amine], the pIC50 is 6.74.

Consider `N[C@@H]1CN(c2nc3cc(F)c(F)cc3n2Cc2noc(C3CC3)n2)CC[C@H]1F` [Example 578, (3R,4R)-1-(1-((5-cyclopropyl-1,2,4-oxadiazol-3-yl)methyl)-5,6-difluoro-1H-benzo[d]imidazol-2-yl)-4-fluoropiperidin-3-amine], for which the pIC50 is 6.60. With `Cc1cc(Cn2c(N3CC[C@@H](F)[C@H](N)C3)nc3cc(F)c(F)cc32)on1` [Example 579, (3R,4R)-1-(5,6-difluoro-1-((3-methylisoxazol-5-yl)methyl)-1H-benzo[d]imidazol-2-yl)-4-fluoropiperidin-3-amine] the figure was 6.51; with `CN(CC(F)(F)F)C(=O)Cn1c(N2CC[C@@H](F)[C@H](N)C2)nc2cc(C(F)(F)F)ccc21` [Example 580, 2-(2-((3R,4R)-3-amino-4-fluoropiperidin-1-yl)-5-(trifluoromethyl)-1H-benzo[d]imidazol-1-yl)-N-methyl-N-(2,2,2-trifluoroethyl)acetamide], 6.44; with `N[C@@H]1CN(c2nc3cc(F)c(F)cc3n2Cc2nnc(C3CC3)o2)CC[C@H]1F` [Example 581, (3R,4R)-1-(1-((5-cyclopropyl-1,3,4-oxadiazol-2-yl)methyl)-5,6-difluoro-1H-benzo[d]imidazol-2-yl)-4-fluoropiperidin-3-amine], 6.43. Under `Cc1nnc(Cn2c(N3CC[C@@H](F)[C@H](N)C3)nc3cc(F)ccc32)s1` [Example 582, (3R,4R)-4-fluoro-1-(5-fluoro-1-((5-methyl-1,3,4-thiadiazol-2-yl)methyl)-1H-benzo[d]imidazol-2-yl)piperidin-3-amine] stands 6.42; under `N[C@@H]1CN(c2nc3cc(F)cnc3n2Cc2ncc(Cl)cn2)CC[C@H]1F` [Example 583], 6.38; under `N[C@@H]1CN(c2nc3cc(F)ccc3n2Cc2nc(C(F)(F)F)no2)CC[C@H]1F` [Example 584, (3R,4R)-4-fluoro-1-(5-fluoro-1-((3-(trifluoromethyl)-1,2,4-oxadiazol-5-yl)methyl)-1H-benzo[d]imidazol-2-yl)piperidin-3-amine], 6.26. With `Cc1nc(-c2ccccc2)sc1Cn1c(N2CC[C@@H](F)[C@H](N)C2)nc2ccc(F)cc21` [Example 585, (3R,4R)-4-fluoro-1-(6-fluoro-1-((4-methyl-2-phenylthiazol-5-yl)methyl)-1H-benzo[d]imidazol-2-yl)piperidin-3-amine] the figure was 6.24; with `Cc1nnc(Cn2c(N3CC[C@@H](F)[C@H](N)C3)nc3cc(F)c(F)cc32)n1C` [Example 586, (3R,4R)-1-(1-((4,5-dimethyl-4H-1,2,4-triazol-3-yl)methyl)-5,6-difluoro-1H-benzo[d]imidazol-2-yl)-4-fluoropiperidin-3-amine], 6.13. Turning to `N[C@@H]1CN(c2nc3cc(F)ccc3n2Cc2nnc(C(F)F)s2)CC[C@H]1F` [Example 587, (3R,4R)-1-(1-((5-(difluoromethyl)-1,3,4-thiadiazol-2-yl)methyl)-5-fluoro-1H-benzo[d]imidazol-2-yl)-4-fluoropiperidin-3-amine], the pIC50 is 6.12.

On to `Cc1nnc(Cn2c(N3CCC(F)(F)[C@H](N)C3)nc3ccc(F)cc32)s1` [Example 588, (R)-4,4-difluoro-1-(6-fluoro-1-((5-methyl-1,3,4-thiadiazol-2-yl)methyl)-1H-benzo[d]imidazol-2-yl)piperidin-3-amine], for which the pIC50 was 6.09. On to `Cc1nc(C)c(Cn2c(N3CC[C@@H](F)[C@H](N)C3)nc3ccc(F)cc32)s1` [Example 589, (3R,4R)-1-(1-((2,4-dimethylthiazol-5-yl)methyl)-6-fluoro-1H-benzo[d]imidazol-2-yl)-4-fluoropiperidin-3-amine], for which the pIC50 is 6.00.

As to `Cc1nnc(Cn2c(N3CC[C@@H](F)[C@H](N)C3)nc3cc(F)cnc32)s1` [Example 590, (3R,4R)-4-fluoro-1-(6-fluoro-3-((5-methyl-1,3,4-thiadiazol-2-yl)methyl)-3H-imidazo[4,5-b]pyridin-2-yl)piperidin-3-amine], the pIC50 was 5.84. With `CN(CC(F)(F)F)C(=O)Cn1c(N2CC[C@@H](F)[C@H](N)C2)nc2cc(F)cc(F)c21` [Example 591, 2-(2-((3R,4R)-3-amino-4-fluoropiperidin-1-yl)-5,7-difluoro-1H-benzo[d]imidazol-1-yl)-N-methyl-N-(2,2,2-trifluoroethyl)acetamide] the figure was 5.80; with `CN(C)C(=O)Cn1c(N2CC[C@@H](F)[C@H](N)C2)nc2cc(C(F)(F)F)ccc21` [Example 592, 2-(2-((3R,4R)-3-amino-4-fluoropiperidin-1-yl)-5-(trifluoromethyl)-1H-benzo[d]imidazol-1-yl)-N,N-dimethylacetamide], 5.76; with `Cc1nc(-c2ccccc2)sc1Cn1c(N2CC[C@@H](F)[C@H](N)C2)nc2cc(F)ccc21` [Example 593, (3R,4R)-4-fluoro-1-(5-fluoro-1-((4-methyl-2-phenylthiazol-5-yl)methyl)-1H-benzo[d]imidazol-2-yl)piperidin-3-amine], 5.67.

`CN(C)C(=O)Cn1c(N2CC[C@@H](F)[C@H](N)C2)nc2cc(F)cc(F)c21` [Example 594, 2-(2-((3R,4R)-3-amino-4-fluoropiperidin-1-yl)-5,7-difluoro-1H-benzo[d]imidazol-1-yl)-N,N-dimethylacetamide]: the pIC50 is under 5.43. With `CS(=O)(=O)c1ccc(Cn2c(N3CC[C@@H](F)[C@H](N)C3)nc3cc(F)cc(F)c32)nc1` [Example 595, (3R,4R)-1-(5,7-difluoro-1-((5-(methylsulfonyl)pyridin-2-yl)methyl)-1H-benzo[d]imidazol-2-yl)-4-fluoropiperidin-3-amine] the figure was under 5.43; with `Cc1nc(C)c(Cn2c(N3CC[C@@H](F)[C@H](N)C3)nc3cc(F)ccc32)s1` [Example 596, (3R,4R)-1-(1-((2,4-dimethylthiazol-5-yl)methyl)-5-fluoro-1H-benzo[d]imidazol-2-yl)-4-fluoropiperidin-3-amine], under 5.43; with `Cc1nnc(Cn2c(N3CCC(F)(F)[C@H](N)C3)nc3cc(F)ccc32)s1` [Example 597, (R)-4,4-difluoro-1-(5-fluoro-1-((5-methyl-1,3,4-thiadiazol-2-yl)methyl)-1H-benzo[d]imidazol-2-yl)piperidin-3-amine], under 5.43. Take `N[C@@H]1CN(c2nc3cc(F)cc(F)c3n2Cc2nnc(C(F)F)s2)CC[C@H]1F` [Example 598, (3R,4R)-1-(1-((5-(difluoromethyl)-1,3,4-thiadiazol-2-yl)methyl)-5,7-difluoro-1H-benzo[d]imidazol-2-yl)-4-fluoropiperidin-3-amine]: the pIC50 is under 5.43.

Values taken from US11332459B2 (TEIJIN PHARMA LIMITED, priority 2017, dated 2022).
